Test results as given in patent US6288085A, “Piperidine derivatives for treating psychoses” (Akzo Nobel N.V., priority 1996, dated 2001).

Legend:
[1] = test system: climbing behaviour in mice, induced by apomorphine (dopamine receptors); assay: Apomorphine climbing test (ACT) in mice; assay type: in vivo; conditions: Mus musculus, 0.75 mg/kg apomorphine HCl sc after 30 min, scored at 10 and 20 min
Excerpt: Apomorphine Climbing Test In Mice
The ability of dopamine receptor antagonists to inhibit the behavioural effects in rodents caused by dopamine agonists such as apomorphine is a well established criterion for predicting the antipsychotic efficacy of these drugs in man (see e.g. W. C. Bowman and M. J. Rand, Textbook of Pharmacology, 2nd ed., 1980, 15, 6). A particularly relevant test in this respect is the apomorphine climbing test (ACT) which measures the ability of a dopamine antagonist to inhibit the climbing behaviour in mice, induced by the subcutaneous or oral administration of apomorphine. Activity in this test, following systemic and oral administration, has been widely used as a predictor of antipsychotic activity i.e. anti-schizophrenic activity (see e.g. J. T Strupczewski et.al., J. Med. Chem., 1995, 38, 1119). Mice treated with apomorphine HCl tend to adopt a vertical position along the wall of a wire mesh cylinder, standing or climbing. This climbing behaviour is considered to be elicited by apomorphine-mediated stimulation of dopamine receptors. […] Test compounds which modulate this climbing behaviour may have anti-psychotic activity.
The various treatments are randomly distributed over the mice. Each experiment consists of 1+n treatment groups: 1 being a control group of 12 mice receiving apomorphine and vehicle subcutaneously or being a control group of 12 mice receiving apomorphine subcutaneously and vehicle orally; n being (usually 4) compound groups of 12 mice receiving apomorphine and test compound subcutaneously or being compound groups of 12 mice receiving apomorphine subcutaneously and test compound orally.
Experiments are performed in 3 runs of 20 mice each. The mice are marked and weighed, test compound or vehicle is administered subcutaneously and the mice are placed in small Macrolon cages of 17×11×13 cm, 5 mice per cage, or test compound or vehicle is administered orally and the mice are placed in Macrolon cages of 29×11×13 cm, 5 mice per cage. After 30 min 0.75 mg/kg apomorphine HCl is administered subcutaneously in mice treated subcutaneously with vehicle or test compound, or 0.75 mg/kg apomorphine HCl is administered subcutaneously in mice treated orally with vehicle or test compound, and the mice are placed individually in a wire mesh cylinder (diameter 12 cm, height 14 cm).
At 10 min after the treatment with apomorphine the climbing behaviour of each mouse is observed and expressed as a score, according to the following grade: […]
4 paws on the floor score 0
1 or 2 paws holding the wall score 1
3 or 4 paws holding the wall score 2
At 20 min after the treatment with apomorphine the climbing behaviour is observed and scored again. For each treatment group the mean score per mouse is determined. The score of the control group should be at least 1.0; if not, the trial is rejected. The final result per group is expressed as the percentage over the control group.
The results of this test for the present test compounds are denoted in Table I (subcutaneous and oral administration of test compound).

[2] = test system: catalepsy; assay: Catalepsy in rats (CATR); assay type: in vivo, Male Wistar rats
Procedure: (§1) Catalepsy in rats: Male Wistar rats (100-125 g, Olac UK) were used for catalepsy experiments. Catalepsy was assessed as described previously (Broekkamp et al, Naunyn Schmiedeberg's Arch. Pharmacol. 338, 191 1988). Briefly, rats were tested in 6 different observation trials in which the animals were placed in abnormal postures and scored positively with one point for maintaining the imposed posture for 10s. The imposed postures were; vertical clinging to a grid, upright standing with a high support for the front paws, extension of hindlegs, placement on back, placement of spatula in the mouth and rotation in a wire mesh cylinder.
(§2) Theoretically a maximum score of 6 can be reached. Catalepsy was assessed at 60 and 120 minutes after drug administration. The data were evaluated by 2 way ANOVAR followed by a Newman Kools post hoc test and ED50 values calculated (Table II).

[3] = Catalepsy in rats (CATR); assay type: in vivo, Male Wistar rats; conditions: rat; catalepsy assessed at 60 and 120 minutes after drug administration
Procedure: as §1, §2

[4] = sc administration of test compound
[5] = po administration of test compound

## CN1CCC(=C(c2ccccc2)c2cccs2)CC1 [Compound B, 1-methyl-4-(2-thienyl)-phenyl-methylenepiperidine, reference compound]
[1]; [4]
  ED50: 22 mg/kg

## CN1CCC(=C(c2ccc(F)cc2)c2cccs2)CC1 [Compound A, 1-methyl-4-[(2-thienyl)-(4-fluorophenyl)]methylenepiperidine, reference compound]
[1]; [5]
  ED50: 100 mg/kg
[1]; [4]
  ED50: 2.8 mg/kg

## CN(C)CCCN1c2ccccc2Sc2ccc(Cl)cc21 [chlorpromazine, reference compound]
[2]; rat, in vivo, 14 mg/kg
  CATR score at max dose: 5.3
[3]
  ED50: 4.8 mg/kg

## CN1CCC(=C(c2ccccc2)c2ccc(Cl)s2)CC1 [Compound C, 1-methyl-4-[(-5-chloro-2-thienyl)-phenyl]methylenepiperidine, reference compound]
[1]; [4]
  ED50: 22 mg/kg

## CN1CCC(=C(c2ccc(F)cc2)c2cc(Cl)cs2)CC1 [Example 2, 1-methyl-4-[(4-chloro-2-thienyl)-(4-fluorophenyl)]-methylene-piperidine]
[1]; [5]
  ED50: 5 mg/kg
[1]; [4]
  ED50: 0.6 mg/kg
[2]; at 56 mg/kg, theoretical maximum score 6, 60 and 120 minutes
  CATR score at max dose: 0.2
[3]
  ED50: > 50 mg/kg

## Cc1csc(C(=C2CCN(C)CC2)c2ccc(F)cc2)c1 [Example 3, 1-methyl-4-[(4-methyl-2-thienyl)-(4-fluoropheny)]methylene-piperidine]
[1]; [5]
  ED50: 8.6 mg/kg
[1]; [4]
  ED50: 1.5 mg/kg
[2]; at 75 mg/kg, theoretical maximum score 6, 60 and 120 minutes
  CATR score at max dose: 0.2
[3]
  ED50: > 75 mg/kg
